Tests used:
kochia = experiment: Test C pre-/postemergence herbicide test; assay type: in vivo, Kochia scoparia; conditions: preemergence
Outline: (§1)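 Emerged plants at the 1- to 4-leaf stage (2–18 cm), or freshly planted seeds, received test chemicals in a non-phytotoxic solvent mixture with surfactant. Response was visually scored against controls after 12 to 14 days in the greenhouse, on a 0 (no effect) to 100 (complete control) scale.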

lambsquarters = experiment: Test C pre-/postemergence herbicide test; assay type: in vivo, Chenopodium album; conditions: preemergence
Outline: as §1

common ragweed = experiment: Test C pre-/postemergence herbicide test; assay type: in vivo, Ambrosia elatior; parameters: key to Plant response rating, Ragweed: 0 = no effect, 100 = complete control; conditions: preemergence
Outline: as §1

large crabgrass = experiment: Test C pre-/postemergence herbicide test; assay type: in vivo, Digitaria sanguinalis; conditions: preemergence
Outline: as §1

[1] = tested on: smallflower umbrella sedge; experiment: Test C flooded paddy test; assay type: in vivo, Cyperus difformis; conditions: for Plant response rating, Sedge, Umbrella: 500 g ai/ha, visual rating after 12 to 14 days
giant foxtail = experiment: Test B pre-/postemergence herbicide test; assay type: in vivo, Setaria faberi; conditions: for Foxtail, Giant plant response rating: postemergence
Outline: (§2)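 Seeds were planted and treated preemergence with compounds formulated in a non-phytotoxic solvent mixture containing surfactant, while plants at the 1- to 4-leaf stage (2 to 18 cm) received postemergence sprays. Flooded paddy plants were grown to the 2-leaf stage. After 13 to 15 days in a greenhouse, injury was visually rated 0–100 against untreated controls.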

Surinam grass = experiment: Test C pre-/postemergence herbicide test; assay type: in vivo, Urochloa decumbens; conditions: preemergence
Outline: as §1

goosegrass = experiment: Test C pre-/postemergence herbicide test; assay type: in vivo, Eleusine indica; conditions: preemergence
Outline: as §1

pigweed = experiment: Test B pre-/postemergence herbicide test; assay type: in vivo, Amaranthus retroflexus
Outline: as §2

[2] = 500 g ai/ha, scale 0 to 100 (0 no effect, 100 complete control), visual, 12 to 14 days
[3] = 125 g ai/ha, scale 0 to 100 (0 no effect, 100 complete control)
[4] = 250 g ai/ha, scale of 0 to 100, 0 is no effect, 100 is complete control
[5] = scale 0 to 100 (0 no effect, 100 complete control)
[6] = 125 g ai/ha, 0 is no effect, 100 is complete control, preemergence
[7] = 125 g ai/ha, visual rating, scale 0 (no effect) to 100 (complete control)
[8] = 500 g ai/ha, scale 0 to 100, 0 is no effect, 100 is complete control
[9] = 125 g ai/ha, visual rating, scale 0 (no effect) to 100 (complete control), postemergence
[10] = 125 g ai/ha, scale 0 (no effect) to 100 (complete control), visual, 12 to 14 days
[11] = 125 g ai/ha, 0 = no effect, 100 = complete control, preemergence
[12] = 500 g ai/ha, visual rating, 0 = no effect, 100 = complete control, preemergence

SMILES	Plant response rating, Kochia (kochia; 62 g ai/ha, scale 0 to 100)	Plant response rating, Kochia (kochia; 250 g ai/ha, scale 0-100)	Plant response rating, Lambsquarters (lambsquarters; 62 g ai/ha, scale 0 to 100)	Plant response rating, Lambsquarters (lambsquarters; 250 g ai/ha, scale 0-100)	Plant response rating, Ragweed (common ragweed; 62 g ai/ha, scale 0 to 100)	Plant response rating, Ragweed (common ragweed; 250 g ai/ha, scale 0-100)	Plant response rating, Crabgrass, Large (large crabgrass; 62 g ai/ha, scale 0 to 100)	Plant response rating, Crabgrass, Large (large crabgrass; 250 g ai/ha, scale 0-100)	Sedge, Umbrella plant response rating ([1]; 62 g ai/ha, scale 0 to 100)	Sedge, Umbrella plant response rating [1, 3]	Sedge, Umbrella plant response rating [1, 4]	Plant response rating, Sedge, Umbrella [1, 5]	Foxtail, Giant plant response rating (giant foxtail; [7])	Foxtail, Giant plant response rating (giant foxtail; [8])	Plant response rating, Surinam Grass (Surinam grass; 250 g ai/ha, scale 0-100)	Plant response rating, Goosegrass (goosegrass; 62 g ai/ha, scale 0 to 100)	Plant response rating, Goosegrass (goosegrass; 250 g ai/ha, scale 0-100)	Pigweed plant response rating (pigweed; [9])	other results
C=CCNC(=O)c1cccc(NC(=O)c2nn(C(C)C)nc2CC)c1 [Compound 382]	0	95	90	100	20	90	95	100	75	80	85	90	0	10	100	75	95	30	Plant response rating (0 = no effect, 100 = complete control), Kochia (kochia; 125 g ai/ha): 20; Plant response rating, Kochia (kochia; [2]): 100; Plant response rating (0 = no effect, 100 = complete control), Lambsquarters (lambsquarters; 125 g ai/ha): 100; Plant response rating, Lambsquarters (lambsquarters; [2]): 100; Plant response rating (0 = no effect, 100 = complete control), Ragweed (common ragweed; 125 g ai/ha): 65; Plant response rating, Ragweed (common ragweed; [2]): 100; Plant response rating (0 = no effect, 100 = complete control), Crabgrass, Large (large crabgrass; 125 g ai/ha): 100; Plant response rating, Crabgrass, Large (large crabgrass; [2]): 100; Plant response rating (0 to 100 scale), Foxtail, Giant (giant foxtail; [6]): 80; Plant response rating (0 = no effect, 100 = complete control), Surinam Grass (Surinam grass; 125 g ai/ha): 95; Plant response rating, Surinam Grass (Surinam grass; [2]): 100; Plant response rating (0 = no effect, 100 = complete control), Goosegrass (goosegrass; 125 g ai/ha): 90; Plant response rating, Goosegrass (goosegrass; [2]): 100; Plant response rating (0 to 100 scale), Pigweed (pigweed; [6]): 50; Pigweed plant response rating (pigweed; Postemergence, 500 g ai/ha, scale 0 (no effect) to 100 (complete control)): 40
CCNC(=O)c1ccc(F)c(NC(=O)c2cc(C3(C)CC3)nn2CC)c1 [Compound 300]	60	100	100	100	5	10	100	100	80	80	85	90	30	30	100	85	100	80	Plant response rating, Kochia (kochia; [10]): 100; Plant response rating, Lambsquarters (lambsquarters; [10]): 100; Plant response rating, Crabgrass, Large (large crabgrass; [10]): 100; Foxtail, Giant plant response rating (0 to 100 scale) (giant foxtail; [11]): 80; Plant response rating, Foxtail, Giant (giant foxtail; [12]): 100; Plant response rating, Surinam Grass (Surinam grass; 62 g ai/ha, scale 0 to 100): 30; Plant response rating, Goosegrass (goosegrass; [10]): 100; Pigweed plant response rating (0 to 100 scale) (pigweed; [11]): 100; Plant response rating, Pigweed (pigweed; [12]): 100; Pigweed plant response rating (pigweed; postemergence, 500 g ai/ha, scale 0 to 100, 0 is no effect, 100 is complete control): 90
